We go through 17 compounds from PubChem BioAssay (NCI).

Where “and” joins values, the source holds several entries; their conditions need not be identical. Equal entries are not always repeated.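 Protocol summary: plate cells (96-well), add compound at 5 concentrations, incubate 48 h, interpolate endpoints linearly. GI50 is the concentration that inhibits growth by half. TGI is the concentration that stops growth completely.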

One assay concerns MALME-3M melanoma. The assay can be described thus: NCI-60 cell line screen, 48 h.
As to `C[C@@H]1CC[C@H]2C(COCC3=C(C(F)(F)F)O[C@@H]4O[C@@]5(C)CC[C@H]6[C@H](C)CC[C@@H]3[C@@]46OO5)=C(C(F)(F)F)O[C@@H]3O[C@@]4(C)CC[C@@H]1[C@]32OO4`, the GI50 is below 0.01 µM and the TGI is above 100 µM.

On to `CCn1c(-c2nonc2N)nc2c(C#CCN)ncc(OCCCN)c21`, for which the GI50 was above 25 µM and the TGI was above 25 µM.

Consider `CN1CCN(Cc2ccc(C(=O)Nc3cncc(C#Cc4cnc(N)c5ccccc45)c3)cc2C(F)(F)F)CC1`, for which the GI50 is 1.71 µM and the TGI is 3.25 µM.

In the case of `N#CC(=C1SCS1)[N+](=O)[O-]`, the GI50 is 3.21 µM and the TGI came out at 18.1 µM.

As for `CNC(=O)c1ccccc1CC1(O)c2ccccc2Oc2ccccc21`, the GI50 is 22.8 µM and the TGI was above 100 µM.

With `CCOc1ccc(S(=O)(=O)/N=C2\C=C(SCC(=O)O)C(=O)c3ccccc32)cc1`, the GI50 was 2.13 µM and the TGI amounted to 3.69 µM.

In the case of `COc1cc2c3c(cccc3c1)C(=O)N(CCN1CCCC1)C2=O`, the GI50 was 1.88 µM and the TGI was found to be 4.1 µM.

On to `CCc1c2c(nc3cc4c(cc13)OCO4)-c1cc3c(c(=O)n1C2)COC(=O)[C@]3(O)CC`, for which the GI50 was 0.289 µM and the TGI was above 100 µM.

Consider `N/C(CC(=O)Nc1cc(C(F)(F)F)ccc1Cl)=N\O`, for which the TGI was above 100 µM.

`COc1ccc(/C=C/C=C(/C#N)C(N)=S)cc1`: the GI50 is 26.9 µM and the TGI came out at 99.4 µM.

Regarding `COc1ccc(C(=O)Nc2ncc(Cc3ccc(Cl)cc3)s2)cc1`, the GI50 was 0.087 µM and the TGI is above 100 µM.

In turn, `O=C1NC2(CCCC2)C(=O)C12CCCC2` registered a TGI above 100 µM.

Regarding `CCOC(=O)C1=C(C)Nc2ccccc2S1`, the TGI was above 100 µM.

For the compound `Nc1n[nH]c2ccc([C@@H]3Nc4ccc5[nH]ncc5c4[C@H]4[C@H]5CCC(C5)[C@H]43)cc12`, the GI50 was 0.461 µM and the TGI is above 47.5 µM.

Another assay relates to NCI-H522 lung. The assay can be described thus: NCI-60 cell line screen, 48 h.
As to `COc1ccc(-c2nn(-c3cccc(Cl)c3)cc2C2CC(c3ccccc3)=NN2C(C)=O)cc1` (stereo unspecified), the GI50 is 32.6 µM and the TGI is above 100 µM.

As for `C[C@@H]1CC[C@H]2C(COCC3=C(C(F)(F)F)O[C@@H]4O[C@@]5(C)CC[C@H]6[C@H](C)CC[C@@H]3[C@@]46OO5)=C(C(F)(F)F)O[C@@H]3O[C@@]4(C)CC[C@@H]1[C@]32OO4`, the GI50 was below 0.01 µM and the TGI was determined as 0.073 µM.

In the case of `CCn1c(-c2nonc2N)nc2c(C#CCN)ncc(OCCCN)c21`, the GI50 was above 25 µM and the TGI was above 25 µM.

Regarding `CN1CCN(Cc2ccc(C(=O)Nc3cncc(C#Cc4cnc(N)c5ccccc45)c3)cc2C(F)(F)F)CC1`, the GI50 was 1.95 µM and the TGI is 4.26 µM.

`N#CC(=C1SCS1)[N+](=O)[O-]`: the GI50 is 0.687 µM and the TGI amounted to 2.08 µM.

For `CNC(=O)c1ccccc1CC1(O)c2ccccc2Oc2ccccc21`, the GI50 was 8.39 µM and the TGI amounted to 37.3 µM.

Regarding `CCOc1ccc(S(=O)(=O)/N=C2\C=C(SCC(=O)O)C(=O)c3ccccc32)cc1`, the GI50 is 2.53 µM and the TGI was 6.63 µM.

As for `COc1cc2c3c(cccc3c1)C(=O)N(CCN1CCCC1)C2=O`, the GI50 is 2.3 µM and the TGI stood at 5.78 µM.

Turning to `N/C(CC(=O)Nc1cc(C(F)(F)F)ccc1Cl)=N\O`, the TGI is above 100 µM.

Consider `COc1ccc(/C=C/C=C(/C#N)C(N)=S)cc1`, for which the GI50 was 26.1 µM and the TGI was determined as 58.3 µM.

As for `COc1ccc(-c2cc(-c3cc(Cl)ccc3Cl)nc3[nH]c(-c4cc(F)c(Cl)cc4Cl)cc(=O)c23)cc1`, the GI50 was 20.4 µM and the TGI is above 100 µM.

For `COc1ccc(C(=O)Nc2ncc(Cc3ccc(Cl)cc3)s2)cc1`, the GI50 is 0.0573 µM and the TGI was above 37.8 µM.

Take `COC(=O)C1OC(O[C@H]2CCC3(C)C(CCC4(C)C3CC=C3C5CC(C)(C)CCC5(C(=O)O)CC[C@]34C)C2(C)C)C(O)C(OC2OC(CO)C(O)C(O)C2O)C1O` (stereo partly specified): the GI50 is 10.5 µM and the TGI came out at 29 µM.

`O=C1NC2(CCCC2)C(=O)C12CCCC2`: the TGI was above 100 µM.

For `CCOC(=O)C1=C(C)Nc2ccccc2S1`, the TGI is above 100 µM.

Consider `Nc1n[nH]c2ccc([C@@H]3Nc4ccc5[nH]ncc5c4[C@H]4[C@H]5CCC(C5)[C@H]43)cc12`, for which the GI50 is 0.31 µM and the TGI turned out to be 3.57 µM.

A further assay has as its system OVCAR-3 ovarian. The assay can be described thus: NCI-60 cell line screen, 48 h.
`COc1ccc(-c2nn(-c3cccc(Cl)c3)cc2C2CC(c3ccccc3)=NN2C(C)=O)cc1` (stereo unspecified): the GI50 was 5.42 µM and the TGI is 45.1 µM.

With `C[C@@H]1CC[C@H]2C(COCC3=C(C(F)(F)F)O[C@@H]4O[C@@]5(C)CC[C@H]6[C@H](C)CC[C@@H]3[C@@]46OO5)=C(C(F)(F)F)O[C@@H]3O[C@@]4(C)CC[C@@H]1[C@]32OO4`, the GI50 was 0.0365 µM and the TGI is above 100 µM.

With `CCn1c(-c2nonc2N)nc2c(C#CCN)ncc(OCCCN)c21`, the GI50 is above 25 µM and the TGI is above 25 µM.

On to `CN1CCN(Cc2ccc(C(=O)Nc3cncc(C#Cc4cnc(N)c5ccccc45)c3)cc2C(F)(F)F)CC1`, for which the GI50 is 1.95 µM and the TGI was 3.71 µM.

For the compound `N#CC(=C1SCS1)[N+](=O)[O-]`, the GI50 is 1.13 µM and the TGI was determined as 3.92 µM.

As to `CCOc1ccc(S(=O)(=O)/N=C2\C=C(SCC(=O)O)C(=O)c3ccccc32)cc1`, the GI50 is 1.88 µM and the TGI stood at 12.2 µM.

For the compound `COc1cc2c3c(cccc3c1)C(=O)N(CCN1CCCC1)C2=O`, the GI50 is 2.3 µM and the TGI was found to be 6.29 µM.

Turning to `CCc1c2c(nc3cc4c(cc13)OCO4)-c1cc3c(c(=O)n1C2)COC(=O)[C@]3(O)CC`, the GI50 is 0.476 µM and 1.87 µM; the TGI was above 100 µM.

Compound `N/C(CC(=O)Nc1cc(C(F)(F)F)ccc1Cl)=N\O` had a TGI above 100 µM.

For the compound `COc1ccc(/C=C/C=C(/C#N)C(N)=S)cc1`, the GI50 is 15.5 µM and the TGI was 42.7 µM.

`COc1ccc(-c2cc(-c3cc(Cl)ccc3Cl)nc3[nH]c(-c4cc(F)c(Cl)cc4Cl)cc(=O)c23)cc1`: the GI50 was above 100 µM and the TGI is above 100 µM.

For `COc1ccc(C(=O)Nc2ncc(Cc3ccc(Cl)cc3)s2)cc1`, the GI50 is 0.0327 µM and the TGI was found to be 0.159 µM.

In the case of `COC(=O)C1OC(O[C@H]2CCC3(C)C(CCC4(C)C3CC=C3C5CC(C)(C)CCC5(C(=O)O)CC[C@]34C)C2(C)C)C(O)C(OC2OC(CO)C(O)C(O)C2O)C1O` (stereo partly specified), the GI50 was 13.9 µM and the TGI was above 33.3 µM.

`O=C1NC2(CCCC2)C(=O)C12CCCC2`: the TGI is above 100 µM.

In turn, `CCOC(=O)C1=C(C)Nc2ccccc2S1` displayed a TGI above 100 µM.

`Nc1n[nH]c2ccc([C@@H]3Nc4ccc5[nH]ncc5c4[C@H]4[C@H]5CCC(C5)[C@H]43)cc12`: the GI50 was 0.23 µM and the TGI came to 0.64 µM.

A further assay has as its system T-47D breast. The assay can be described thus: NCI-60 cell line screen, 48 h.
Take `COc1ccc(-c2nn(-c3cccc(Cl)c3)cc2C2CC(c3ccccc3)=NN2C(C)=O)cc1` (stereo unspecified): the GI50 was 8.53 µM and the TGI is above 100 µM.

On to `C[C@@H]1CC[C@H]2C(COCC3=C(C(F)(F)F)O[C@@H]4O[C@@]5(C)CC[C@H]6[C@H](C)CC[C@@H]3[C@@]46OO5)=C(C(F)(F)F)O[C@@H]3O[C@@]4(C)CC[C@@H]1[C@]32OO4`, for which the GI50 is below 0.01 µM and the TGI was above 100 µM.

With `CCn1c(-c2nonc2N)nc2c(C#CCN)ncc(OCCCN)c21`, the GI50 was above 25 µM and the TGI is above 25 µM.

On to `CN1CCN(Cc2ccc(C(=O)Nc3cncc(C#Cc4cnc(N)c5ccccc45)c3)cc2C(F)(F)F)CC1`, for which the GI50 is 11.6 µM and the TGI came out at 32.2 µM.

In the case of `N#CC(=C1SCS1)[N+](=O)[O-]`, the GI50 is 0.724 µM and the TGI came to 20.9 µM.

Regarding `CNC(=O)c1ccccc1CC1(O)c2ccccc2Oc2ccccc21`, the GI50 was 21.5 µM and the TGI is above 100 µM.

For the compound `CCOc1ccc(S(=O)(=O)/N=C2\C=C(SCC(=O)O)C(=O)c3ccccc32)cc1`, the GI50 was 2.72 µM and the TGI came out at 7.18 µM.

On to `COc1cc2c3c(cccc3c1)C(=O)N(CCN1CCCC1)C2=O`, for which the GI50 is 2.5 µM and the TGI turned out to be 8.76 µM.

`CCc1c2c(nc3cc4c(cc13)OCO4)-c1cc3c(c(=O)n1C2)COC(=O)[C@]3(O)CC`: the GI50 was below 0.001 µM.

In the case of `N/C(CC(=O)Nc1cc(C(F)(F)F)ccc1Cl)=N\O`, the TGI was above 100 µM.

For `COc1ccc(/C=C/C=C(/C#N)C(N)=S)cc1`, the GI50 was 18.8 µM and the TGI stood at 76.9 µM.

As for `COc1ccc(-c2cc(-c3cc(Cl)ccc3Cl)nc3[nH]c(-c4cc(F)c(Cl)cc4Cl)cc(=O)c23)cc1`, the GI50 is above 100 µM and the TGI is above 100 µM.

For `COC(=O)C1OC(O[C@H]2CCC3(C)C(CCC4(C)C3CC=C3C5CC(C)(C)CCC5(C(=O)O)CC[C@]34C)C2(C)C)C(O)C(OC2OC(CO)C(O)C(O)C2O)C1O` (stereo partly specified), the GI50 is 8.16 µM and the TGI was determined as 17.2 µM.

The subject of a further assay is UO-31 renal. The assay can be described thus: NCI-60 cell line screen, 48 h.
As for `COc1ccc(-c2nn(-c3cccc(Cl)c3)cc2C2CC(c3ccccc3)=NN2C(C)=O)cc1` (stereo unspecified), the GI50 was 6.36 µM and the TGI was above 100 µM.

Take `C[C@@H]1CC[C@H]2C(COCC3=C(C(F)(F)F)O[C@@H]4O[C@@]5(C)CC[C@H]6[C@H](C)CC[C@@H]3[C@@]46OO5)=C(C(F)(F)F)O[C@@H]3O[C@@]4(C)CC[C@@H]1[C@]32OO4`: the GI50 is below 0.01 µM and the TGI was above 100 µM.

For `CCn1c(-c2nonc2N)nc2c(C#CCN)ncc(OCCCN)c21`, the GI50 was above 25 µM and the TGI is above 25 µM.

As for `CN1CCN(Cc2ccc(C(=O)Nc3cncc(C#Cc4cnc(N)c5ccccc45)c3)cc2C(F)(F)F)CC1`, the GI50 was 1.59 µM and the TGI turned out to be 2.98 µM.

In the case of `N#CC(=C1SCS1)[N+](=O)[O-]`, the GI50 is 6.04 µM and the TGI stood at 24.3 µM.

Consider `CNC(=O)c1ccccc1CC1(O)c2ccccc2Oc2ccccc21`, for which the GI50 is 29.4 µM and the TGI is above 100 µM.

As for `CCOc1ccc(S(=O)(=O)/N=C2\C=C(SCC(=O)O)C(=O)c3ccccc32)cc1`, the GI50 was 4.13 µM and the TGI was 15.8 µM.

For the compound `CCc1c2c(nc3cc4c(cc13)OCO4)-c1cc3c(c(=O)n1C2)COC(=O)[C@]3(O)CC`, the GI50 was 0.0103 µM; the TGI is 0.401 µM and 0.0689 µM.

Take `N/C(CC(=O)Nc1cc(C(F)(F)F)ccc1Cl)=N\O`: the TGI is above 100 µM.

`COc1ccc(/C=C/C=C(/C#N)C(N)=S)cc1`: the GI50 was 21.6 µM and the TGI is 45.2 µM.

Turning to `COc1ccc(-c2cc(-c3cc(Cl)ccc3Cl)nc3[nH]c(-c4cc(F)c(Cl)cc4Cl)cc(=O)c23)cc1`, the GI50 is 59.5 µM and the TGI is above 100 µM.

`COc1ccc(C(=O)Nc2ncc(Cc3ccc(Cl)cc3)s2)cc1`: the GI50 was 0.91 µM and the TGI is above 100 µM.

On to `COC(=O)C1OC(O[C@H]2CCC3(C)C(CCC4(C)C3CC=C3C5CC(C)(C)CCC5(C(=O)O)CC[C@]34C)C2(C)C)C(O)C(OC2OC(CO)C(O)C(O)C2O)C1O` (stereo partly specified), for which the GI50 was above 33.3 µM and the TGI was above 33.3 µM.

In turn, `O=C1NC2(CCCC2)C(=O)C12CCCC2` gave a TGI above 100 µM.

`CCOC(=O)C1=C(C)Nc2ccccc2S1` showed a TGI above 100 µM.

`Nc1n[nH]c2ccc([C@@H]3Nc4ccc5[nH]ncc5c4[C@H]4[C@H]5CCC(C5)[C@H]43)cc12`: the GI50 is 0.698 µM and the TGI was determined as 46.5 µM.
